Patent US20250281453A1, “COMBINATION THERAPIES COMPRISING QTX125” (QUIMATRYX, S.L., priority 2022, published 2025)

Legend:
Assay type in all cases: cell-based
[1] = tested on: Hep-G2 hepatic cancer cells; assay: Cell viability, hexosaminidase assay, monotherapy
Procedure: (§1) In brief, HCT-116, MiaPaCa-2 and Panc-1 cells were thawed in high glucose DMEM (Sigma D5796) with 10% heat-inactivated Foetal Calf Serum (FCS) (PAA, A15-101)). Hep-G2 and SK-Hep1 cells were thawed in Minimum Essential Media (MEM) (Sigma M2279) with 1% non-essential amino acids (Sigma M7145), 2 mM Glutamine (Sigma G7513) and 10% FCS. SK-OV-3 cells were thawed in McCoy's 5A medium (Sigma, M8403) with 15% FCS. All cells were passaged by washing once in cation-free dPBS (Sigma, D1408), and incubated for 3 minutes with trypsin ([0.5 μg/ml]/EDTA [0.2 μg/ml] (Sigma, T4174) in dPBS). Passage was completed at 37° C., and cells were transferred to the appropriate media. Prior to seeding at defined cell density, cells were recovered in medium, centrifuged and resuspended for counting.
(§2) To prepare cells for viability assays, cells were transferred into 96 well tissue culture plates (Cultek), and resuspended in 100 µL at the following densities: 10,000 cells/well (Hep-G2 and MiaPaCa-2), 5000 cells/well (Panc-1 and SK-OV-3) or 3000 cells/well (HCT-116). Following 24 hours of incubation, media was removed and replaced with 100 µL media spiked with QTX125 and the test chemotherapeutic agents. Stock solutions for the agents used in this study are shown below in Table 1. Cells were incubated for a further 72 hours before cell viability was assessed using both ALAMAR® and hexosaminidase assays.
(§3) For the hexosaminidase assay, media containing QTX125 and the test chemotherapeutic agents was removed, and cells were washed once with PBS. 60 μL of substrate solution (containing: 7.5 mM p-nitrophenol-N-acetyl-beta-D-glucosamide [Sigma N-9376], 0.1 M sodium citrate, pH 5.0 and 0.25% Triton X-100) was added to each well and cells were incubated at 37° C. for at least 1 hour. Incubating cells in this manner causes the substrate solution to become bright yellow, at which point 90 μL of developer solution (containing 50 mM Glycine pH 10.4 and 5 mM EDTA) was added to each well. Absorbance at 410 nm was recorded using a plate reader.
(§4) A number of appropriate control samples were included. First, absorbance values measured in reagent ‘blank’ wells (containing cell culture medium and colorimetric agent only) were subtracted from ‘test’ sample-containing wells. ‘Blank’ absorbance values were routinely between 5 and 10% of the values recorded in test wells. Absorbance values recorded in test wells were then compared against wells containing (i) cells stimulated with QTX125 only; (ii) cells stimulated with sorafenib, gemcitabine or bortezomib only and/or (iii) unstimulated cells, as appropriate.
(§5) Control values were normalised to 100% and percentage (%) viability was calculated. Data were used to plot log dose-response curves using a sigmoid dose-response (variable slope) equation. EC50 values were obtained using Equation 1, where ‘X’ is the logarithmic concentration; ‘Y’ is the response output and it is assumed that Y starts at bottom of the graph and reaches the top with an overall sigmoid shape.
(§6) Prior to assessing the oncolytic efficacy of QTX125-containing combination therapies, the oncolytic effect of each test agent was assessed in isolation. Dose-response curves were produced by serial dilution (1:1), thereby allowing monotherapy EC50 values to be calculated.
(§7) Chemotherapeutic agents were added to wells at a starting concentration of 100 μM. However, it was quickly determined that it was not possible to use this range for all chemotherapeutic agents tested. An optimization study was therefore completed to identify suitable maximum (‘high’) doses for each agent and in each individual cell line.

[2] = tested on: SK-OV-3 ovarian cancer cells; assay: Cell viability, hexosaminidase assay, monotherapy
Procedure: as §1, §2, §3, §4, §5, §6, §7

[3] = tested on: Panc-1 pancreatic cancer cells; assay: Cell viability, hexosaminidase assay, monotherapy
Procedure: as §1, §2, §3, §4, §5, §6, §7

[4] = tested on: MiaPaCa-2 pancreatic cancer cells; assay: Cell viability, hexosaminidase assay, monotherapy
Procedure: as §1, §2, §3, §4, §5, §6, §7

[5] = tested on: HCT-116 colonic cancer cells; assay: Cell viability, hexosaminidase assay, monotherapy
Procedure: as §1, §2, §3, §4, §5, §6, §7

[6] = tested on: SK-OV-3 ovarian cancer cells; assay: QTX125-containing combination therapy, hexosaminidase cell viability; details: for EC50: Homo sapiens, SK-OV-3, SK-Ov-3; for combination index (C.I): SK-Ov-3
Procedure: To assess the oncolytic efficacy of QTX125-containing combination therapies in vitro, colonic, pancreatic, hepatic and ovarian tumour cells were administered sorafenib, gemcitabine or bortezomib at EC25, EC50 and EC75 doses. QTX125 was co-administered in order to produce a dose response curve.
as §2, §3, §5
Cls were obtained using Equation 2, where (Dm) 1 is the ECx concentration of QTX125 and (D) 1 is the ECx concentration of QTX125 in the presence of sorafenib, gemcitabine or bortezomib.
In order to assess the oncolytic efficacy of QTX125-containing combination therapies, monotherapy EC25, EC50 and EC75 doses for sorafenib, gemcitabine and bortezomib were calculated (as per Experiment 3) and administered to wells at these fixed concentrations. QTX125 was co-administered at a range of concentrations, in order to plot a dose-response curve such that the EC50 dose of QTX125 could be calculated in the presence of sorafenib/gemcitabine/bortezomib. QTX125 was administered to cells at a starting high-dose, and a 1:1 dilution was completed thereafter. In this part of the study, only the hexosaminidase assay was employed to assess cell viability following treatment with QTX125-containing combination therapies.
It should be noted that it was not possible to determine the appropriate concentrations for gemcitabine in all cell lines tested. In cells resistant to gemcitabine, nominal concentrations were used in place of EC25, EC50 and EC75 doses (e.g., nominal doses of 1, 10 and 100 µM were used in Panc-1 and Hep-G2 cells).

[7] = Homo sapiens, 72 h, read-out: EC50 dose of monotherapy
[8] = 72 hours of high-dose monotherapy (Table 2: QTX125 100, sorafenib 100, gemcitabine 100, bortezomib 1 μM)
[9] = + bortezomib at EC25 dose (0.006 μM)
[10] = + bortezomib at EC50 dose (0.007 μM)
[11] = + bortezomib at EC75 dose (0.012 μM)
[12] = + gemcitabine at EC25 dose (0.1 μM)
[13] = + gemcitabine at EC50 dose (0.25 μM)
[14] = + gemcitabine at EC75 dose (0.5 μM)
[15] = + sorafenib at EC25 dose (9.1 μM)
[16] = + sorafenib at EC50 dose (12.7 μM)
[17] = + sorafenib at EC75 dose (21.6 μM)

O=C(NO)c1ccc(CNC(=O)c2[nH]c(-c3ccc(O)cc3)cc2-c2ccoc2)cc1 [QTX125, 3-(3-Furyl)-N-{4-[(hydroxyamino)carbonyl]benzyl}-5-(4-hydroxyphenyl)-1 Hpyrrole-2-carboxamide]
percentage (%) cell viabilities ([1]; 72 hours of high-dose monotherapy (Table 2: QTX125 5, sorafenib 100, gemcitabine 100, bortezomib 1 μM)): 2.1%
EC50 ([1]; Homo sapiens, HepG2, 72 h, read-out: EC50 dose of monotherapy): 3.3 ± 0.4 µM
reduction of the population of viable cells ([1]; high-dose monotherapy, 72 hours): ~98%
percentage (%) cell viabilities ([2]; 72 hours of high-dose monotherapy (Table 2: QTX125 10, sorafenib 100, gemcitabine 10, bortezomib 1 μM)): 5.0%
EC50 [2, 7]: 3.6 ± 0.4 µM
percentage (%) cell viabilities [3, 8]: 3.9%
EC50 [3, 7]: 3.6 ± 0.5 µM
percentage (%) cell viabilities [4, 8]: 7.3%
EC50 ([4]; Homo sapiens, MIA PaCa-2, 72 h, read-out: EC50 dose of monotherapy): 1.5 ± 0.2 µM
percentage (%) cell viabilities ([5]; 72 hours of high-dose monotherapy (Table 2: QTX125 1, sorafenib 100, gemcitabine 10, bortezomib 1 μM)): 7.3%
EC50 [5, 7]: 0.43 µM
EC50 [6, 9]: 0.532 µM
EC50 [6, 10]: 0.58 µM
EC50 [6, 11]: 0.262 µM
EC50 [6, 12]: 0.171 µM
EC50 [6, 13]: 0.303 µM
EC50 [6, 14]: 0.139 µM
EC50 [6, 15]: 0.389 µM
EC50 [6, 16]: 0.657 µM
EC50 [6, 17]: 0.406 µM
EC50 ([6]; no second agent (control of Table 5.4.1)): 0.623 µM
EC50 ([6]; no second agent (control of Table 5.4.2)): 0.282 µM
EC50 ([6]; no second agent (control of Table 5.4.3)): 0.633 µM
combination index (C.I) [6, 9]: 0.8 arbitrary units
combination index (C.I) [6, 10]: 0.9 arbitrary units
combination index (C.I) [6, 11]: 0.4 arbitrary units
combination index (C.I) [6, 12]: 0.6 arbitrary units
combination index (C.I) [6, 13]: 1.1 arbitrary units
combination index (C.I) [6, 14]: 0.5 arbitrary units
combination index (C.I) [6, 15]: 0.6 arbitrary units
combination index (C.I) [6, 16]: 1.1 arbitrary units
combination index (C.I) [6, 17]: 0.7 arbitrary units
